# From PubChem BioAssay AID1963860 (Molecular Pharmacology Branch, DTP, NCI, 2024)
# System: CN0375-F725-PDC KRAS spheroid viability
# Assay: Anticancer human tumor CN0375-F725-PDC patient-derived colon carcinoma cell line growth inhibition [KRAS2]
# Details: spheroids with HUVEC and MSC; for viability, T/C: stronger effect = lower value
# Outline: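 KRAS-mutant tumor cells were grown as spheroids with HUVEC endothelial cells and human MSCs as stroma. Targeted agents were tested alone and with KRAS pathway inhibitors. Doses started at or near clinical Cmax, or 10 microM, descending half-log.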
# [1] = curve of first compound, second compound 0.1 µM
# [2] = curve of first compound, second compound 0.316 µM
# [3] = curve of first compound, second compound 1 µM
# [4] = curve of first compound, second compound 3.16 µM
# [5] = curve of first compound, second compound 10 µM
# [6] = second compound 0.1 µM, first compound 0.0316 µM
# [7] = second compound 0.1 µM, first compound 0.1 µM
# [8] = second compound 0.1 µM, first compound 0.316 µM
# [9] = second compound 0.1 µM, first compound 1 µM
# [10] = second compound 0.1 µM, first compound 3.16 µM
# [11] = second compound 0.1 µM, first compound 10 µM
# [12] = second compound 0.316 µM, first compound 0.0316 µM
# [13] = second compound 0.316 µM, first compound 0.1 µM
# [14] = second compound 0.316 µM, first compound 0.316 µM
# [15] = second compound 0.316 µM, first compound 1 µM
# [16] = second compound 0.316 µM, first compound 3.16 µM
# [17] = second compound 0.316 µM, first compound 10 µM
# [18] = second compound 1 µM, first compound 0.0316 µM
# [19] = second compound 1 µM, first compound 0.1 µM
# [20] = second compound 1 µM, first compound 0.316 µM
# [21] = second compound 1 µM, first compound 1 µM
# [22] = second compound 1 µM, first compound 3.16 µM
# [23] = second compound 1 µM, first compound 10 µM
# [24] = second compound 3.16 µM, first compound 0.0316 µM
# [25] = second compound 3.16 µM, first compound 0.1 µM
# [26] = second compound 3.16 µM, first compound 0.316 µM
# [27] = second compound 3.16 µM, first compound 1 µM
# [28] = second compound 3.16 µM, first compound 3.16 µM
# [29] = second compound 3.16 µM, first compound 10 µM
# [30] = second compound 10 µM, first compound 0.0316 µM
# [31] = second compound 10 µM, first compound 0.1 µM
# [32] = second compound 10 µM, first compound 0.316 µM
# [33] = second compound 10 µM, first compound 1 µM
# [34] = second compound 10 µM, first compound 3.16 µM
# [35] = second compound 10 µM, first compound 10 µM
# [36] = compound alone, run of 08/26/2021
# [37] = compound alone, run of 09/02/2021
# 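Also: spheroids exposed to agents for 7 days.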
structure (smiles),measurement,setting,value
COc1cc2nccc(Oc3ccc(NC(=O)C4(C(=O)Nc5ccc(F)cc5)CC4)cc3)c2cc1OC + C=CC(=O)N1CCN(c2nc(=O)n(-c3c(C)ccnc3C(C)C)c3nc(-c4c(O)cccc4F)c(F)cc23)C(C)C1,IC50,[1],> 10 µM
same,IC50,[2],> 10 µM
same,IC50,[3],> 10 µM
same,IC50,[4],> 10 µM
same,IC50,[5],1.97 µM
same,"viability, T/C",[6],109%
same,"viability, T/C",[7],106%
same,"viability, T/C",[8],96.3%
same,"viability, T/C",[9],89%
same,"viability, T/C",[10],63.5%
same,"viability, T/C",[11],74.1%
same,"viability, T/C",[12],113%
same,"viability, T/C",[13],102%
same,"viability, T/C",[14],92%
same,"viability, T/C",[15],85.4%
same,"viability, T/C",[16],63.8%
same,"viability, T/C",[17],62.1%
same,"viability, T/C",[18],114%
same,"viability, T/C",[19],117%
same,"viability, T/C",[20],94.7%
same,"viability, T/C",[21],91.1%
same,"viability, T/C",[22],58.2%
same,"viability, T/C",[23],71.1%
same,"viability, T/C",[24],109%
same,"viability, T/C",[25],107%
same,"viability, T/C",[26],96.9%
same,"viability, T/C",[27],89.8%
same,"viability, T/C",[28],51.5%
same,"viability, T/C",[29],62.1%
same,"viability, T/C",[30],99.4%
same,"viability, T/C",[31],96.4%
same,"viability, T/C",[32],85.7%
same,"viability, T/C",[33],69.3%
same,"viability, T/C",[34],31.9%
same,"viability, T/C",[35],41.1%
COc1cc2nc(C)nc(NC(C)c3cc(N)cc(C(F)(F)F)c3)c2cc1OC1CCOC1 (stereo unspecified),"viability, T/C",compound 0.1 µM,96.2% [middle of 17 runs]
same,"viability, T/C",compound 0.316 µM,92.3% [middle of 17 runs]
same,"viability, T/C",compound 1 µM,90.5% [middle of 17 runs]
same,"viability, T/C",compound 3.16 µM,83.4% [middle of 17 runs]
same,IC50,[36],5.77 µM [middle of 4 runs]
same,IC50,[37],5.43 µM [middle of 6 runs]
COC(=O)c1ccc2c(C(=Nc3ccc(N(C)C(=O)CN4CCN(C)CC4)cc3)c3ccccc3)c(O)[nH]c2c1 + C=CC(=O)N1CCN(c2nc(=O)n(-c3c(C)ccnc3C(C)C)c3nc(-c4c(O)cccc4F)c(F)cc23)C(C)C1,IC50,[1],3.69 µM
same,IC50,[2],2.35 µM
same,IC50,[3],1.78 µM
same,IC50,[4],1.86 µM
same,IC50,[5],1.54 µM
same,"viability, T/C",[6],98.2%
same,"viability, T/C",[7],100%
same,"viability, T/C",[8],95.3%
same,"viability, T/C",[9],94.8%
same,"viability, T/C",[10],57.7%
same,"viability, T/C",[11],0.25%
same,"viability, T/C",[12],104%
same,"viability, T/C",[13],103%
same,"viability, T/C",[14],93.8%
same,"viability, T/C",[15],96.1%
same,"viability, T/C",[16],34.2%
same,"viability, T/C",[17],0.2%
same,"viability, T/C",[18],106%
same,"viability, T/C",[19],108%
same,"viability, T/C",[20],96.3%
same,"viability, T/C",[21],88.1%
same,"viability, T/C",[22],12.5%
same,"viability, T/C",[23],0.2%
same,"viability, T/C",[24],104%
same,"viability, T/C",[25],106%
same,"viability, T/C",[26],102%
same,"viability, T/C",[27],90%
same,"viability, T/C",[28],15.7%
same,"viability, T/C",[29],0.22%
same,"viability, T/C",[30],97.9%
same,"viability, T/C",[31],98.2%
same,"viability, T/C",[32],87.1%
same,"viability, T/C",[33],73%
same,"viability, T/C",[34],12.3%
same,"viability, T/C",[35],0.26%
CC(C)NCC(C(=O)N1CCN(c2ncnc3c2C(C)CC3O)CC1)c1ccc(Cl)cc1 (stereo unspecified) + C=CC(=O)N1CCN(c2nc(OCC3CCCN3C)nc3c2CCN(c2cccc4cccc(C)c24)C3)CC1CC#N,IC50,"curve of first compound, second compound 0.0316 µM",> 10 µM
same,IC50,[1],> 10 µM
same,IC50,[2],> 10 µM
same,IC50,[3],> 10 µM
same,IC50,[4],< 0.0316 µM
same,"viability, T/C","second compound 0.0316 µM, first compound 0.0316 µM",106%
same,"viability, T/C","second compound 0.0316 µM, first compound 0.1 µM",105%
same,"viability, T/C","second compound 0.0316 µM, first compound 0.316 µM",101%
same,"viability, T/C","second compound 0.0316 µM, first compound 1 µM",93%
same,"viability, T/C","second compound 0.0316 µM, first compound 3.16 µM",94.2%
same,"viability, T/C","second compound 0.0316 µM, first compound 10 µM",83.2%
same,"viability, T/C",[6],106%
same,"viability, T/C",[7],103%
same,"viability, T/C",[8],98%
same,"viability, T/C",[9],91.7%
same,"viability, T/C",[10],91.4%
same,"viability, T/C",[11],78.2%
same,"viability, T/C",[12],101%
same,"viability, T/C",[13],108%
same,"viability, T/C",[14],94.6%
same,"viability, T/C",[15],87.8%
same,"viability, T/C",[16],85.3%
same,"viability, T/C",[17],71.4%
same,"viability, T/C",[18],103%
same,"viability, T/C",[19],102%
same,"viability, T/C",[20],92.5%
same,"viability, T/C",[21],76.8%
same,"viability, T/C",[22],70.9%
same,"viability, T/C",[23],58.2%
same,"viability, T/C",[24],19.5%
same,"viability, T/C",[25],14.7%
same,"viability, T/C",[26],13.5%
same,"viability, T/C",[27],4.72%
same,"viability, T/C",[28],3.97%
same,"viability, T/C",[29],1.46%
C=CC(=O)N1CCN(c2nc(=O)n(-c3c(C)ccnc3C(C)C)c3nc(-c4c(O)cccc4F)c(F)cc23)C(C)C1 (stereo unspecified),"viability, T/C",compound 0.1 µM,103% [middle of 17 runs]
same,"viability, T/C",compound 0.316 µM,103% [middle of 17 runs]
same,"viability, T/C",compound 1 µM,103% [middle of 17 runs]
same,"viability, T/C",compound 3.16 µM,104% [middle of 17 runs]
same,"viability, T/C",compound 10 µM,100% [middle of 17 runs]
same,IC50,"compound alone, run of 08/19/2021",> 10 µM
same,IC50,[36],> 10 µM
same,IC50,[37],> 10 µM
COc1cc(Nc2ncc3c(n2)-c2ccc(Cl)cc2C(c2c(F)cccc2OC)=NC3)ccc1C(=O)O,"viability, T/C",compound 0.0316 µM,102% [middle of 5 runs]
same,"viability, T/C",compound 0.1 µM,101% [middle of 5 runs]
same,"viability, T/C",compound 0.316 µM,93.7% [middle of 5 runs]
same,"viability, T/C",compound 1 µM,96.3% [middle of 5 runs]
same,"viability, T/C",compound 3.16 µM,94.8% [middle of 5 runs]
same,"viability, T/C",compound 10 µM,78.3% [middle of 5 runs]
same,IC50,curve of compound,> 10 µM
CCNC(=O)CC1N=C(c2ccc(Cl)cc2)c2cc(OC)ccc2-n2c(C)nnc21 (stereo unspecified) + CNCc1ccccc1-c1csc(C(C)Nc2nc(C)nc3cc(OC)c(OC)cc23)c1,IC50,[1],> 10 µM
same,IC50,[2],6.77 µM
same,IC50,[3],1.48 µM
same,IC50,[4],< 0.0316 µM
same,IC50,[5],< 0.0316 µM
same,"viability, T/C",[6],103%
same,"viability, T/C",[7],89%
same,"viability, T/C",[8],76.2%
same,"viability, T/C",[9],75.2%
same,"viability, T/C",[10],67.3%
same,"viability, T/C",[11],50.9%
same,"viability, T/C",[12],92.5%
same,"viability, T/C",[13],85.2%
same,"viability, T/C",[14],77%
same,"viability, T/C",[15],67.7%
same,"viability, T/C",[16],58.4%
same,"viability, T/C",[17],45.6%
same,"viability, T/C",[18],57.8%
same,"viability, T/C",[19],65.7%
same,"viability, T/C",[20],63.7%
same,"viability, T/C",[21],52.7%
same,"viability, T/C",[22],40.9%
same,"viability, T/C",[23],20.7%
same,"viability, T/C",[24],0.58%
same,"viability, T/C",[25],0.33%
same,"viability, T/C",[26],0.36%
same,"viability, T/C",[27],0.35%
same,"viability, T/C",[28],0.39%
same,"viability, T/C",[29],0.46%
same,"viability, T/C",[30],0.3%
same,"viability, T/C",[31],0.29%
same,"viability, T/C",[32],0.46%
same,"viability, T/C",[33],0.31%
same,"viability, T/C",[34],0.71%
same,"viability, T/C",[35],0.4%
